Measurements from PubChem BioAssay (NCI).
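The concentration for 50% growth inhibition is given as GI50. TGI: concentration producing complete growth inhibition.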

What was measured:
Test in all cases: inhibition of tumour cell growth, NCI panel, 384-well format
UACC-257 melanoma = system: UACC-257 melanoma
SK-MEL-5 melanoma = system: SK-MEL-5 melanoma
A549 NSCLC = system: A549 NSCLC
SK-MEL-2 melanoma = system: SK-MEL-2 melanoma
SN12C renal = system: SN12C renal
MDA-MB-231 breast = system: MDA-MB-231 breast
RXF 393 renal = system: RXF 393 renal
CCRF-CEM leukemia = system: CCRF-CEM leukemia
UACC-62 melanoma = system: UACC-62 melanoma
SF-539 CNS = system: SF-539 CNS
NCI-H522 lung = system: NCI-H522 lung
SW-620 colon = system: SW-620 colon
NCI-H23 lung = system: NCI-H23 lung
NCI-H226 lung = system: NCI-H226 lung
HCT-15 colon = system: HCT-15 colon
M14 melanoma = system: M14 melanoma
COLO 205 colon = system: COLO 205 colon
OVCAR-3 ovarian = system: OVCAR-3 ovarian
HOP-92 NSCLC = system: HOP-92 NSCLC
SF-295 CNS = system: SF-295 CNS
MOLT-4 leukemia = system: MOLT-4 leukemia
EKVX NSCLC = system: EKVX NSCLC
CAKI-1 renal = system: CAKI-1 renal
HCC-2998 colon = system: HCC-2998 colon
LOX IMVI melanoma = system: LOX IMVI melanoma
NCI/ADR-RES ovarian = system: NCI/ADR-RES ovarian
HS 578T breast = system: HS 578T breast
MDA-MB-435 melanoma = system: MDA-MB-435 melanoma

C[C@@H](NC(=O)/C(C#N)=C/c1ccc([N+](=O)[O-])cc1)c1ccccc1
GI50 (UACC-257 melanoma): 3.39 µM | TGI (UACC-257 melanoma): 9.81 µM | GI50 (SK-MEL-5 melanoma): 2.09 µM | TGI (SK-MEL-5 melanoma): 3.79 µM | GI50 (A549 NSCLC): 3.04 µM | TGI (A549 NSCLC): 8.55 µM | GI50 (SK-MEL-2 melanoma): 2.02 µM | TGI (SK-MEL-2 melanoma): 3.57 µM | GI50 (SN12C renal): 2.01 µM | TGI (SN12C renal): 4.19 µM | GI50 (MDA-MB-231 breast): 3.03 µM | TGI (MDA-MB-231 breast): 7.47 µM | GI50 (RXF 393 renal): 1.72 µM | TGI (RXF 393 renal): 3.15 µM | GI50 (CCRF-CEM leukemia): 1.64 µM | TGI (CCRF-CEM leukemia): 3.02 µM | GI50 (UACC-62 melanoma): 1.82 µM | TGI (UACC-62 melanoma): 3.51 µM | GI50 (SF-539 CNS): 2.18 µM | TGI (SF-539 CNS): 4.3 µM | GI50 (NCI-H522 lung): 0.271 µM | TGI (NCI-H522 lung): 0.964 µM | GI50 (SW-620 colon): 1.88 µM | TGI (SW-620 colon): 3.39 µM | GI50 (NCI-H23 lung): 1.83 µM | TGI (NCI-H23 lung): 3.39 µM | GI50 (NCI-H226 lung): 2.04 µM | TGI (NCI-H226 lung): 4.28 µM | GI50 (HCT-15 colon): 1.72 µM | TGI (HCT-15 colon): 3.24 µM | GI50 (M14 melanoma): 2.37 µM | TGI (M14 melanoma): 5.7 µM | GI50 (COLO 205 colon): 1.71 µM | TGI (COLO 205 colon): 3.11 µM | GI50 (OVCAR-3 ovarian): 1.61 µM | TGI (OVCAR-3 ovarian): 3.12 µM | GI50 (HOP-92 NSCLC): 3.22 µM | TGI (HOP-92 NSCLC): 12.1 µM | GI50 (SF-295 CNS): 1.94 µM | TGI (SF-295 CNS): 3.85 µM | GI50 (MOLT-4 leukemia): 1.5 µM | TGI (MOLT-4 leukemia): 2.85 µM | GI50 (EKVX NSCLC): 1.91 µM | TGI (EKVX NSCLC): 3.55 µM | GI50 (CAKI-1 renal): 1.72 µM | TGI (CAKI-1 renal): 3.32 µM | GI50 (HCC-2998 colon): 1.14 µM | TGI (HCC-2998 colon): 2.42 µM | GI50 (LOX IMVI melanoma): 1.93 µM | TGI (LOX IMVI melanoma): 3.49 µM | GI50 (NCI/ADR-RES ovarian): 2.08 µM | TGI (NCI/ADR-RES ovarian): 4.65 µM | GI50 (HS 578T breast): 1.85 µM | TGI (HS 578T breast): 3.41 µM | GI50 (MDA-MB-435 melanoma): 3.26 µM
